In ChEMBL document CHEMBL1201862, “PubChem BioAssay data set” (2004):
Calls of active or inactive are those of the source.

Experiments:
[1] = Luminescence Cell-Based Dose Retest to Confirm Inhibitors of Cancer Stem Cells. [Related pubchem assays (depositor defined):AID2717, AID2721]; type: functional; settings: Homo sapiens
[2] = biological target: T1, Leucine aminopeptidase (Plasmodium falciparum 3D7, UniProt Q8IL11); assay: P. falciparum M17LAP inhibitors, primary screen, biochemical, fluorogenic H-Leu-NHMec substrate, 1536-well (AID 1619); type: functional
T1 sequence (Q8IL11 whole entry): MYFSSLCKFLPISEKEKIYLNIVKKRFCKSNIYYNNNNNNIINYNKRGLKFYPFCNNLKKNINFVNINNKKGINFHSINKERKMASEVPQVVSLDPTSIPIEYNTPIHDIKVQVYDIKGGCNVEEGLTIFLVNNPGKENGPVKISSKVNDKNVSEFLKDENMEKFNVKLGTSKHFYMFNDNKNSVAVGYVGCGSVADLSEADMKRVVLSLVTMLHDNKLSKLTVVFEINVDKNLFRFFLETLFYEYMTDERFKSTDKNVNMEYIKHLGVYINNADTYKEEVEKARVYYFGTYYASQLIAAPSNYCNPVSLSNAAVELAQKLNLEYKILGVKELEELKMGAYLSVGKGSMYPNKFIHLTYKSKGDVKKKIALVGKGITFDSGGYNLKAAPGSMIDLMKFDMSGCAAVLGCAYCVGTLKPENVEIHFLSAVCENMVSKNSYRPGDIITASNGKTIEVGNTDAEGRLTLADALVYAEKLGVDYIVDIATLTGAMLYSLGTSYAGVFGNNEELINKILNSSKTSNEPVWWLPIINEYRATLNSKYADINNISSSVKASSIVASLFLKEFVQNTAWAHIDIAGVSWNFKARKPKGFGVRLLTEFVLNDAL

[3] = biological target: T2, RNA-binding protein pos-1 (Caenorhabditis elegans, UniProt G5EF15); assay: inhibitors of POS-1/mex-3 RNA binding, dose response, biochemical, fluorescence polarization (AID 1964);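 note: purified POS-1 fused to maltose binding protein made in E. coli; potency of compounds blocking POS-1 binding to fluorescent RNA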
T2 sequence (G5EF15 whole entry): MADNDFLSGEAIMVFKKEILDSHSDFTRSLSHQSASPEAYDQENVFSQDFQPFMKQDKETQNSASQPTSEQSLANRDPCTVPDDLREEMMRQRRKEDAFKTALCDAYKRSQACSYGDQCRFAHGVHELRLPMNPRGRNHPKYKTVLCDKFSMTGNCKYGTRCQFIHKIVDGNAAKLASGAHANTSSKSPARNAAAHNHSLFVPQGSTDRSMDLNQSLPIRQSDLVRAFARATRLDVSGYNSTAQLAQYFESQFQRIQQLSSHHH

[4] = biological target: T3, Zinc finger protein mex-5 (Caenorhabditis elegans, UniProt Q9XUB2); assay: MEX-5/TCR-2 RNA interaction inhibitors, dose response, biochemical, C. elegans, fluorescence polarization (AID 1960)
T3 sequence (Q9XUB2 whole entry): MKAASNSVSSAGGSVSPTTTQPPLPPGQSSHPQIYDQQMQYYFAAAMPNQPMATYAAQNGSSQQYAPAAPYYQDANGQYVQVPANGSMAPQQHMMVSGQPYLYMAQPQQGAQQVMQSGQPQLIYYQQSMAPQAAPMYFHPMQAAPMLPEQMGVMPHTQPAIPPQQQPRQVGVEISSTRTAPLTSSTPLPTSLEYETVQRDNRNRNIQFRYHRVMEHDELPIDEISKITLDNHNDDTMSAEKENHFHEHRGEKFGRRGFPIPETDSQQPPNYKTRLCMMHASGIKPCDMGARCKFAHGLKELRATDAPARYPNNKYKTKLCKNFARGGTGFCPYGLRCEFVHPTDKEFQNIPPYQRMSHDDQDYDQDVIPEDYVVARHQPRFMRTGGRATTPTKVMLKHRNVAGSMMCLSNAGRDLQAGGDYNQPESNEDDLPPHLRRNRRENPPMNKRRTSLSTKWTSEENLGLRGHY

[5] = biological target: T4, Protein skinhead-1 (Caenorhabditis elegans, UniProt P34707); type: functional
T4 sequence (P34707 whole entry): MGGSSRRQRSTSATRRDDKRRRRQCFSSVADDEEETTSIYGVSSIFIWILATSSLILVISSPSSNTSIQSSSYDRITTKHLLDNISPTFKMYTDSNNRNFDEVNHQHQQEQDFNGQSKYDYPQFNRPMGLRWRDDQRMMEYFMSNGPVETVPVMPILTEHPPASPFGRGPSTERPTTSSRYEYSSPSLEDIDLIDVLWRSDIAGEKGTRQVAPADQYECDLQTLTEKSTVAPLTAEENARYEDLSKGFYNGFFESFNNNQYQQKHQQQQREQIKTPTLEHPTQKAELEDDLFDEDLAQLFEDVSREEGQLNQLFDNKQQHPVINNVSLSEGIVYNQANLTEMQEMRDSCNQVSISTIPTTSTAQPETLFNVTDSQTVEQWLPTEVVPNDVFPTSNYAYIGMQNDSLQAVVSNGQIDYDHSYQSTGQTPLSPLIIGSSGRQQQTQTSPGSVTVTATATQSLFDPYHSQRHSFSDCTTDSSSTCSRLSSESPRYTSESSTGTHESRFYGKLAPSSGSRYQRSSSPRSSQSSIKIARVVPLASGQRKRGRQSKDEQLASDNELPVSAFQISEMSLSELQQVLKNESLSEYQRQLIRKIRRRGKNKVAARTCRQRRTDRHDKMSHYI

[6] = microbe, parasite or virus in culture; type: functional; settings: Mycobacterium tuberculosis
[7] = test system: INS1; assay: beta cell apoptosis inhibitors, cytokine rescue, dose response, luminescence, retest (AID 449756); type: functional, cell-based; settings: Rattus norvegicus;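 note: cell death triggered by IL-1 beta plus TNF-alpha plus IFN-gamma mixture; protective hits raise ATP signal compared with cytokine alone wells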
[8] = biological target: T5, Cytochrome P450 1A2 (Homo sapiens, UniProt P05177);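 note: PubChem cytochrome P450 panel assay, CYP1A2 panel member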
T5 sequence (P05177 whole entry): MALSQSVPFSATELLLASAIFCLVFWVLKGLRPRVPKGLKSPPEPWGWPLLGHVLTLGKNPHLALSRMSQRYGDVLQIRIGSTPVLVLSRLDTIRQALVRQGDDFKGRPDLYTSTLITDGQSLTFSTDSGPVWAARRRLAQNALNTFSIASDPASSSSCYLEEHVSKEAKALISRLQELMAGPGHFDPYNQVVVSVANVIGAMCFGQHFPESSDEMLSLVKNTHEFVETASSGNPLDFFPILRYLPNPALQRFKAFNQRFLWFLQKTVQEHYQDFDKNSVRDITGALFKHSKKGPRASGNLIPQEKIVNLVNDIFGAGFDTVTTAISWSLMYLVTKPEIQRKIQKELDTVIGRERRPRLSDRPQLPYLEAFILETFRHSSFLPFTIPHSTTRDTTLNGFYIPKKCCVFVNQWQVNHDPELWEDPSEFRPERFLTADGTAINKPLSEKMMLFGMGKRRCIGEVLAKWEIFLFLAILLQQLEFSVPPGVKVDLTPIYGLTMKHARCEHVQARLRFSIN

[9] = biological target: Cytochrome P450 3A4 (Homo sapiens, UniProt P08684);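 note: CYP3A4 tested as one member of a cytochrome P450 panel screen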
Cytochrome P450 3A4, sequence (P08684 whole entry): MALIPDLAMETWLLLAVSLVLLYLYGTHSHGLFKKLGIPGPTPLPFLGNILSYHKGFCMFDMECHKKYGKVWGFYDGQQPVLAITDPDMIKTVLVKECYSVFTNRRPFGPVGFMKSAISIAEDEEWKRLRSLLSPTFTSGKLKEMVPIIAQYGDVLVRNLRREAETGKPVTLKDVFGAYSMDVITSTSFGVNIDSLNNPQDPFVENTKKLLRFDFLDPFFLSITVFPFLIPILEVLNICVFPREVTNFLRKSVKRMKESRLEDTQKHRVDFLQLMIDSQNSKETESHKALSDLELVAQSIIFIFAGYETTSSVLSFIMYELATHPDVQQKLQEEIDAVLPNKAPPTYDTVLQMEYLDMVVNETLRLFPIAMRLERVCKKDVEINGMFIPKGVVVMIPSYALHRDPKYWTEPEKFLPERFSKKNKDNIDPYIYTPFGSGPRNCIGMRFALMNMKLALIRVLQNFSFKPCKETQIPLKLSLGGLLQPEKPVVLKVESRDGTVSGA

[10] = biological target: Cytochrome P450 2D6 (Homo sapiens, UniProt P10635);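 note: CYP2D6 member of a cytochrome P450 panel assay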
Cytochrome P450 2D6, sequence (P10635 whole entry): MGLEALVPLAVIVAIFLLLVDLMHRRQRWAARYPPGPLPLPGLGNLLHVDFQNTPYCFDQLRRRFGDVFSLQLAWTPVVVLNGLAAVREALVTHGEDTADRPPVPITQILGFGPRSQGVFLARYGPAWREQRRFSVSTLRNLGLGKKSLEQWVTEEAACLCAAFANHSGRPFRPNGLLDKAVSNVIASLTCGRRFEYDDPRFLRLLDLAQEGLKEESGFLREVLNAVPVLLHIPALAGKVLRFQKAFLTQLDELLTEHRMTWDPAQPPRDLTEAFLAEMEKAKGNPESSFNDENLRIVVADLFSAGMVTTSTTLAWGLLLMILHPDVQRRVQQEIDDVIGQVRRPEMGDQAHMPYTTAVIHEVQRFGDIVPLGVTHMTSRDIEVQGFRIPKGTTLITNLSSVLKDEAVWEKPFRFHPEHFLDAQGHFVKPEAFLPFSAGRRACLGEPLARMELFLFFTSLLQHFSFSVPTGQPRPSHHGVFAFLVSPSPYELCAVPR

[11] = HEp-2 cell cytotoxicity, dose response, cytotoxicity control for RSV inhibitor project, HTS (AID 2410); type: functional; settings: human respiratory syncytial virus

CCn1cc([N+](=O)[O-])c(C(=O)Nc2nc(-c3ccc(C)cc3)c(C)s2)n1
AC50 [1]: 4.24 µM (active)

O=C(CSc1nnc[nH]1)Nc1cccc2ccccc12
IC50 [2]: 29.2 µM (active)

CCn1cc(C=C2C(=O)NC(=O)NC2=O)c2ccccc21
EC50 [3]: 28.7 µM (inconclusive) | EC50 [4]: > 300 µM (inconclusive)

Cc1cc(C)cc(NC(=O)CSc2ncc(S(=O)(=O)c3ccccc3)c(=O)[nH]2)c1
IC50 [2]: 11.9 µM (active)

O=C1NC(=O)N(CC2CCCO2)C(=O)/C1=C/c1c[nH]c2ccccc12 (stereo not given)
EC50 [3]: > 300 µM (not active) | EC50 [4]: > 300 µM (not active)

O=C(C=Cc1cccs1)c1ccc(Cl)s1
IC50 [5]: 19.7 µM (active)

CCOCCCNC(=O)C(c1ccc(Cl)cc1)N1CCC2(CC1)OCCO2 (stereo not given)
IC50 [5]: > 100 µM (inactive)

C=CCn1c(CNC(=O)c2ccco2)nnc1SCC(=O)Nc1cccc(Br)c1
IC50 [2]: 90.1 µM (active)

Cc1cccc(NC(=O)c2ccc(COc3ccc(Cl)cc3Cl)o2)n1
AC50 [1]: 1.18 µM (active)

CC1=C(C(=O)OCC2CCCO2)C(c2ccccc2OC(C)C)C2=C(O)CC(c3ccco3)CC2=N1 (stereo not given)
IC50 [5]: > 100 µM (inactive)

COc1ccc(CCNC(=O)COc2nsnc2N2CCOCC2)cc1OC
IC50 [5]: > 100 µM (inactive)

CCOCCCn1/c(=N/C(C)=O)c(C#N)cc2c(=O)n3ccccc3nc21
EC50 [3]: > 300 µM (not active) | EC50 [4]: > 300 µM (not active)

COc1ccc(NCc2n[nH]nc2-c2ccccc2)cc1Cl
CC50 [6]: > 40 µM (active)

CCn1c(C)c(C)c2cc(C(=O)N3CCc4ccccc4C3)ccc21
AC50 [7]: 4.05 µM (active) | IC50 [5]: > 100 µM (inactive)

CCCC(=O)Nc1ccc(C(=O)/C=C/c2ccc(SC)cc2)cc1
CC50 [6]: > 40 µM (active) | AC50 [8]: 12.6 µM (inconclusive) | AC50 [9]: 3.16 µM (inconclusive) | AC50 [10]: 7.94 µM (inconclusive)

COc1ccc(N/C(=C(/C(Cl)=C(Cl)Cl)[N+](=O)[O-])n2nnc3ccccc32)cc1
EC50 [3]: 88.5 µM (active) | EC50 [4]: 49.1 µM (inconclusive)

Cc1cc(C)c(NC(=O)CN2C(=O)NC3(CCCCC3)C2=O)c(Cl)c1
IC50 [2]: 29.3 µM (active)

CCCc1cc(O)nc(SCC(=O)N(C)CC(=O)Nc2ccc(C)cc2)n1
IC50 [2]: 9.77 µM (active)

CCCCCCCCOc1ccc(C2OC34CCCCC3C(C#N)(C#N)C2(C#N)C(=N)O4)cc1 (stereo not given)
EC50 [3]: 13 µM (active) | EC50 [4]: 11.8 µM (active)

COc1ccc2c(c1)c(C(O)CN1CCN(Cc3ccc4c(c3)OCO4)CC1)c(C)n2C (stereo not given)
IC50 [5]: > 100 µM (inactive)

CCCSc1nnc(N2C(=O)C(O)=C(C(=O)c3ccco3)C2c2ccccc2F)s1 (stereo not given)
EC50 [3]: > 300 µM (inconclusive) | EC50 [4]: > 300 µM (not active)

c1ccc(-c2csc(-c3ccncc3)n2)cc1
IC50 [5]: 4.05 µM (active)

CN1CCN(c2ccc(NC(=O)COc3ccc(Cl)cc3Cl)cc2)CC1
AC50 [1]: 2.6 µM (active)

COc1ccc(-c2c[nH]nc2-c2ccc(OCC(=O)NN)cc2O)cc1OC
EC50 [3]: > 300 µM (not active) | EC50 [4]: 2.07 µM (active)

Cc1ccc(-c2nc(-c3ccncc3)no2)c(C)c1
IC50 [5]: 40.9 µM (active)

CC(C)CCNC(=O)c1ccc2c(SCC(=O)O)c3c(nc2c1)CCCC3
IC50 [2]: 39.2 µM (active)

Cc1cc(C(=O)O)ccc1-n1c(C)cc(/C=C2\SC(=O)NC2=O)c1C
EC50 [3]: > 300 µM (not active) | EC50 [4]: > 300 µM (not active)

Cc1ccccc1N/N=C/c1c(C)nc2ccccn12
CC50 [6]: > 40 µM (active) | CC50 [11]: 33.2 µM (active)

CC1(C)CC[C@]2(CO)[C@@H](O)C[C@]3(C)C(=CCC4[C@@]5(C)CC[C@H](O)C(C)(C)C5CC[C@]43C)[C@@H]2C1 (stereo not given in full)
AC50 [1]: 3.14 µM (active)

CC1=NNC(=O)C1CCC(=O)N/N=C/C(Br)=C/c1ccccc1 (stereo not given)
IC50 [2]: 8 µM (active)

O=C(/C=C/c1ccc(OCCCF)cc1)Nc1ccnc(-c2cccnc2)n1
EC50 [3]: 22.8 µM (active) | EC50 [4]: 20.6 µM (active)
